For assay [1], the system named is TREx™-mG2A-NFAT-bla Freestyle293F cells. As to the kind of experiment: TREx-mG2A-NFAT-bla Freestyle293F (mouse G2A) doxycycline response. It is filed as cell-based. Conditions: Homo sapiens, FreeStyle 293-F, 16 h. The protocol:
TREx™-mG2A-NFAT-bla Freestyle293F cells were stimulated for 16 hours with doxycycline in the presence of 0.5% DMSO. Cells were then loaded with LiveBLAzer™-FRET B/G (CCF4-AM) for 2 hours. Fluorescence emission values at 460 nm and 530 nm are obtained using a standard florescence plate reader and the Blue/Green Emission ratios are plotted against the concentration of the stimulant.

For assay [2], the system named is T-REx™-GPR23-CRE-bla-CHO-K1 clone H6-E2. The assay is described as follows: T-REx-GPR23-CRE-bla-CHO-K1 clone H6-E2 beta-lactamase reporter assay (induction). It is filed as cell-based, Chinese hamster. As to the method:
Six clones selected for further testing were expanded and retested for their inducible GPR23 specific activity. The clones were plated at 25,000 cells per well in a 96 well black walled clear bottom tissue culture assay plate. The plates were than placed at 37° C. 5% CO2 for 24 hrs to allow the cells to attach to the assay plate. The complete media was then removed from the plate and replaced with assay media (DMEM+0.1% BSA) containing 100 ng/ml pertussis toxin with or without 1 μg/ml tetracycline. The plates were placed at 37° C. 5% CO2 for 16 hrs to allow the induced expression of the GPR23 receptor. The cells were then loaded with LiveBLAzer™-FRET B/G substrate (2 μM) containing solution D for 2 hrs. To determine the optimal cell density for this assay the cells were plated at 2,500, 5,000, 10,000, and 20,000 cells per well in a 384 well black walled clear bottom tissue culture assay plate in complete media (DMEM+10% FBS). The plates were than placed at 37° C. 5% CO2 for 24 hrs to allow the cells to attach to the assay plate. The complete media was then removed from the plate and replaced with assay media (DMEM+0.1% BSA) containing 100 ng/ml pertussis toxin and a four fold dilution series of doxycycline starting at 1 μg/ml. The plates were placed at 37° C./5% CO2 for 16 hrs to allow the induced expression of the GPR23 receptor. The cells were then loaded with LiveBLAzer™-FRET B/G substrate (2 μM) containing solution D for 2 hrs. The cells were plated at 20,000 cells per well in a 384 well black walled clear bottom tissue culture assay plate in complete media (DMEM+10% FBS). The plates were then placed at 37° C. 5% CO2 for 6 hrs to allow the cells to attach to the assay plate. The complete media was then removed from the plate and replaced with assay media (DMEM+0.1% BSA) containing 100 ng/ml pertussis toxin, 0%, 0.25%, 0.5%, or 1.0% DMSO, and a three fold dilution series of doxycycline starting at 1 μg/ml. The plates were placed at 37° C./5% CO2 for 16 hrs to allow the induced expression of the GPR23 receptor. The cells were then loaded with LiveBLAzer™-FRET B/G substrate (2 μM) containing solution D for 2 hrs. The cells were plated at 20,000 cells per well in a 384 well black walled clear bottom tissue culture assay plate in complete media (DMEM+10% FBS). The plates were than placed at 37° C. 5% CO2 for 6 hrs to allow the cells to attach to the assay plate. The complete media was then removed from the plate and replaced with assay media (DMEM+0.1% BSA) containing 100 ng/ml pertussis toxin, 0.5% DMSO, and a three fold dilution series of doxycycline starting at 1 μg/ml. The plates were placed at 37° C. 5% CO2 for 16, 20 or 24 hrs to allow the induced expression of the GPR23 receptor. The cells were then loaded with LiveBLAzer™-FRET B/G substrate (2 μM) containing solution D for 2 hrs. Dose response of T-REx-GPR23-CRE-bla CHO-K1 cells to Doxycycline. T-REx-GPR23-CRE-bla CHO-K1 cells were plated in Growth Media (+) and allowed to attach to the tissue culture plate for 6 hrs. They were then induced for GPR23 expression overnight with doxycycline for 16 hrs in Assay Media. Cells were then loaded with LiveBLAzer™-FRET B/G Substrate (CCF4-AM) for 2 hours. Fluorescence emission values at 460 nm and 530 nm were obtained using a standard florescence plate reader and the Blue/Green Emission Ratios were plotted against the indicated concentrations of doxycycline (FIG. 40).
(Reporter assays use an easily measured gene product as a stand-in for the process of interest.)

pEC50: −log10 of the molar value. Values after ≈ are worked out from the molar mass of the structure shown.

Take `C[C@H]1c2cccc(O)c2C(=O)C2=C(O)[C@]3(O)C(=O)C(C(N)=O)=C(O)[C@@H](N(C)C)[C@@H]3[C@@H](O)[C@@H]21` [Doxycycline]: the EC50 in assay [1] (clone #2, 0.5% DMSO) is 0.386 ng/mL (≈ 0.869 nM); in assay [1] (clone #25, 0.5% DMSO), 1.12 ng/mL (≈ 2.52 nM); in assay [1] (clone #53, 0.5% DMSO), 0.524 ng/mL (≈ 1.18 nM); in assay [2] (Cricetulus griseus, 16 h, 0% DMSO, 20,000 cells per well), 3.3 ng/mL; in assay [2] (Cricetulus griseus, 16 h, 0.25% DMSO, 20,000 cells per well), 4 ng/mL; in assay [2] (Cricetulus griseus, 16 h, 0.5% DMSO, 20,000 cells per well) it was 4 ng/mL. Besides, the EC50 in assay [2] (Cricetulus griseus, 16 h, 1.0% DMSO, 20,000 cells per well) turned out to be 5.1 ng/mL; in assay [2] (Cricetulus griseus, 16 h, 2,500 cells/well, 16 hrs induction) it was 1.3 ng/mL; in assay [2] (Cricetulus griseus, 16 h, 5,000 cells/well, 16 hrs induction), 1 ng/mL; in assay [2] (Cricetulus griseus, 16 h, 10,000 cells/well, 16 hrs induction) it was 1.6 ng/mL; in assay [2] (Cricetulus griseus, 16 h, 20,000 cells/well, 16 hrs induction), 2 ng/mL; in assay [2] (Cricetulus griseus, 16 h, 16 hours induction, 0.5% DMSO), 4 ng/mL. In addition, the EC50 in assay [2] (Cricetulus griseus, 20 h, 20 hours induction, 0.5% DMSO) amounted to 1.9 ng/mL; in assay [2] (Cricetulus griseus, 24 h, 24 hours induction, 0.5% DMSO) it was 2 ng/mL. For the same compound, the maximum response ratio in assay [2] (20,000 cells per well) is listed as 5.7 fold. For the same compound, the pEC50 in assay [2] (Cricetulus griseus, representative data, 16 hrs induction, 2 hours loading) is 8.77.

Broadly, the EC50 is the concentration giving half of the maximal effect. The low end stands for greater potency, the high end for weaker potency. One may read the pEC50 as the EC50 on a negative log10 scale, so that one unit is a factor of ten. Read a high pEC50 as a low EC50.

The values above are taken from US20070218456A1, “CELLULAR ASSAYS FOR SIGNALING RECEPTORS” (INVITROGEN CORPORATION, priority 2006, published 2007).
